According to article PMC12035807 (2025):

How the values were obtained:
[1] = tested on: 5'-Cy5-Ba SAM-VI riboswitch (RNA, riboswitch) GGCAUUGUGCCUCGCAUUGCACUCCGCGGGGCGAUAAGUCCUGAAAAGGGAUGUC; assay: MST; conditions: 100 mM KCl, 25 mM MgCl2, 50 mM Tris-HCl pH 7.5, 2% DMSO
[2] = tested on: 5'-Cy5-Tte preQ1 riboswitch (RNA, riboswitch) CUGGGUCGCAGUAACCCCAGUUAACAAAACAAG; assay: MST; conditions: 100 mM KCl, 25 mM MgCl2, 50 mM Tris-HCl pH 7.5, 2% DMSO
[3] = tested on: Tte preQ1 riboswitch (not labelled) (RNA, riboswitch) CUGGGUCGCAGUAACCCCAGUUAACAAAACAAG; assay: ITC; conditions: 100 mM NaCl, 6 mM MgCl2, 50 mM HEPES pH 7.0, 25 °C; for KD: 0.2% DMSO; for binding: loose binding in SPR
[4] = tested on: 5'-Biotin-Tte preQ1 riboswitch (RNA, riboswitch) CUGGGUCGCAGUAACCCCAGUUAACAAAACAAG; assay: SPR, 1:1 kinetic fit; conditions: 150 mM NaCl, 6 mM MgCl2, 50 mM HEPES pH 7.0, 25 °C
[5] = tested on: Ba SAM-VI riboswitch (label-free, IVT) (RNA, riboswitch) GGCAUUGUGCCUCGCAUUGCACUCCGCGGGGCGAUAAGUCCUGAAAAGGGAUGUC; assay: ITC; conditions: 50 mM KCl, 10 mM MgCl2; 40 mM HEPES pH 7.0, 25 °C, 0.2% DMSO
[6] = tested on: 5'-Biotin-Ba SAM-VI riboswitch (RNA, riboswitch) GGCAUUGUGCCUCGCAUUGCACUCCGCGGGGCGAUAAGUCCUGAAAAGGGAUGUC; assay: SPR, 1:1 kinetic fit; conditions: 150 mM NaCl, 6 mM MgCl2; 50 mM HEPES pH 7.0, 25 °C
[7] = tested on: 5'-Biotin-Tte preQ1 riboswitch (RNA, riboswitch) CUGGGUCGCAGUAACCCCAGUUAACAAAACAAG; assay: SPR; conditions: 150 mM NaCl, 6 mM MgCl2; 50 mM HEPES pH 7.0, 25 °C; loose unspecific, no saturation to 50 µM, KD not determinable
[8] = tested on: 5'-Biotin-Tte preQ1 riboswitch (RNA, riboswitch) CUGGGUCGCAGUAACCCCAGUUAACAAAACAAG; assay: SPR, Interaction Map analysis; conditions: 150 mM NaCl, 6 mM MgCl2; 50 mM HEPES pH 7.0, 25 °C, 2% DMSO

SMILES | binding ([1]; up to 1 mM) | KD [5] [mM] | binding ([2]; up to 1 mM) | KD [6] [µM] | other results
NCc1c[nH]c2nc(N)[nH]c(=O)c12 | no |  |  |  | binding ([2]; 20 nM RNA): yes; KD [3]: 0.0231 ± 0.0074 µM; KD ([4]; one representative sensorgram, replicates 18.5-47.4, mean not in material): 0.0191 µM
NCCCNCCOc1ccc2oc3ccccc3c2c1 | no |  |  |  | binding ([3]; RNA 30 µM, ligand 300 µM): no
Nc1ncnc2c1ncn2[C@@H]1O[C@H](CNCC[C@H](N)C(=O)O)[C@@H](O)[C@H]1O |  | 0.00331 ± 0.00021 | no | 12.3 ± 1.3 | KD ([1]; 20 nM RNA): 33.3 µM
NCCCCNCCCNCCOc1ccc2oc3ccccc3c2c1 | no |  |  |  | binding ([3]; RNA 15 µM, ligand 150 µM): no
NCCCCNCCCNCCOc1ccc2[nH]c3ccccc3c2c1 | no |  |  |  | binding ([3]; RNA 15 µM, ligand 150 µM): no
NCCCNC[C@H]1O[C@@H](n2cnc3c(N)ncnc32)[C@H](O)[C@@H]1O |  | 0.00173 ± 0.00051 | no | 4.17 ± 1.56 | binding ([1]; 20 nM RNA): yes; binding [7]: weak
Nc1ncnc2c1ncn2[C@@H]1O[C@H](CSCC[C@H](N)C(=O)O)[C@@H](O)[C@H]1O |  | 0.014 ± 0.0042 | no | 150 ± 39 | KD ([1]; 20 nM RNA): 34.4 ± 12.0 × 10^-6 M
NCCOc1ccc2[nH]c3ccccc3c2c1 | no |  |  |  | binding ([3]; RNA 15 µM, ligand 150 µM): no
NCCOc1ccc2oc3ccccc3c2c1 | no |  |  |  | binding ([3]; RNA 30 µM, ligand 300 µM): no
C[S+](CC[C@H](N)C(=O)O)C[C@H]1O[C@@H](n2cnc3c(N)ncnc32)[C@H](O)[C@@H]1O (some centres unmarked) |  | 0.000671 ± 5.9e-05 | no | 3.72 ± 0.41 | KD ([1]; 20 nM RNA): 0.718 ± 0.399 × 10^-6 M
NCCCNCCOc1ccc2[nH]c3ccccc3c2c1 | no |  |  |  | binding ([3]; RNA 30 µM, ligand 300 µM): no
N#Cc1c[nH]c2nc(N)[nH]c(=O)c12 | no |  |  |  | binding ([2]; 20 nM RNA): yes; KD [3]: 0.0854 ± 0.0033 µM; KD ([4]; 2% DMSO): 0.074 ± 0.0294 µM; KD [8]: 0.134 µM
